Data on 2 compounds can be found in patent US20100151104A1, “Preservative System For Beverages Based On Combinations Of Trans-Cinnamic Acid, Lauric Arginate, And Dimethyl Dicarbonate” (priority 2008, published 2010).

Series [1] has as its system Brettanomyces bruxellensus. As to the kind of experiment: Growth in 10% apple juice beverage with combinations of LAE & cinnamic acid; log (QA/Qa+QB/Qb) calculation. It counts as cell-based. The source says:
Trans-cinnamic acid and lauric arginate were combined in the following beverage formulation: [table] […] The analysis of the interaction between lauric arginate and cinnamic acid can be refined through use of a mathematical method developed by Voorspuij and Nass (Arch. Int. pharmacodyn. 59:211 1957) (generally accepted among those practiced in the art.) Herein, the interactions between two active substances can be explored. First the quantity (Qa=Molar Cone) of compound A required for an end point (concentration required to stabilize product for 16 weeks) is established. Similarly, the quantity (Qb =Molar cone) of substance B required to establish the same endpoint is established. Thereafter, mixtures of A & B, in quantities QA & Qs are established that also define endpoints. […] If the sum of the ratios for a mixture of A & Bare=1, then the interaction is considered additive. […] Calculation of log (QA/Qa+QB/Qb) for LAE+trans Cinnamic Acid vs Brettanomyces bruzellensus

For another series, the system named is fungal strains. Conditions: prior art; incubation no greater than 72 hours; cited from earlier work.
The nature of series [2]: pKa and un-dissociated fraction of cinnamic acid. It is filed as physicochemical.
Description: It should be noted that cinnamic acid has a particularly high plc, value (4.42) and at least 45% of the cinnamic acid added to beverage is in the form of the un-dissociated acid.
Series [3] concerns Zygosaccharomyces bisporous and Zygosaccharomyces bailii. Briefly: Tolerance of fungal strains to cinnamic acid over 16 weeks incubation. It counts as cell-based. As to the method:
Over a period of incubation of 16 weeks, fungal strains are found to be tolerant to cinnamic acid at concentrations as high as 300 ppm, or even as high as 450 ppm cinnamic acid (pH 3.4). Thus, cinnamic acid, as a stand alone preservative, would need to be present at a concentrations as high as 450 ppm (e.g. between 450-500) in order to be assured that of preservation against spoilage by organisms such as Zygosaccharomyces bisporous and Zygosaccharomyces bailii for a period of at least 16 weeks. […] Beverage product case packaged in a container and which must pass through lengthy channels of distribution before reaching the consumer need be stable for a period as long as 16 weeks.

A further series concerns yeast and mold. The settings on record: recommended by inventor & manufacturer of LAE; cited from earlier work.
[4] abbreviates: stand alone, end point = concentration required to stabilize product for 16 weeks.

Structures are written as SMILES. “And” between values parts separate entries of the source, which are not always exact repeats. Identical values can stand only once.

As for `O=C(O)/C=C/c1ccccc1` [Cinnamic Acid, trans-cinnamic acid], the “QA/Qa + QB/Qb” value in series [1] (QLAE 0, QCA 75) is 1.00. Also, in series [1] (QLAE 0, QCA 75), the “QLAE/QLAE*” value is 0.00. The “QNaB/QNAB*” value in series [1] (QLAE 0, QCA 75) was 1.00. Moreover, the “log (QA/Qa + QB/Qb)” value in series [1] (QLAE 0, QCA 75) was 0.0000. In addition, the “amount of growth (normalized) to control” value is 85% in series [1] (pH 3.0, LAE 0 ppm, Cinnamic Acid 10 ppm); 82% in series [1] (pH 3.0, LAE 0 ppm, Cinnamic Acid 20 ppm); 4% in series [1] (pH 3.0, LAE 0 ppm, Cinnamic Acid 50 ppm); 1% in series [1] (pH 3.0, LAE 0 ppm, Cinnamic Acid 75 ppm); 1% in series [1] (pH 3.0, LAE 0 ppm, Cinnamic Acid 100 ppm); 90% in series [1] (pH 3.5, LAE 0 ppm, Cinnamic Acid 10 ppm). Besides, the “amount of growth (normalized) to control” value in series [1] (pH 3.5, LAE 0 ppm, Cinnamic Acid 20 ppm) was 89%; in series [1] (pH 3.5, LAE 0 ppm, Cinnamic Acid 50 ppm), 27%; in series [1] (pH 3.5, LAE 0 ppm, Cinnamic Acid 75 ppm) it was 0%; in series [1] (pH 3.5, LAE 0 ppm, Cinnamic Acid 100 ppm), 0%; in series [1] (pH 4.0, LAE 0 ppm, Cinnamic Acid 10 ppm), 99%; in series [1] (pH 4.0, LAE 0 ppm, Cinnamic Acid 20 ppm), 96%. For the same compound, the “amount of growth (normalized) to control” value was 65% in series [1] (pH 4.0, LAE 0 ppm, Cinnamic Acid 50 ppm); 1% in series [1] (pH 4.0, LAE 0 ppm, Cinnamic Acid 75 ppm); 1% in series [1] (pH 4.0, LAE 0 ppm, Cinnamic Acid 100 ppm). In addition, the “QCA* (quantity of cinnamic acid alone required for the end point)” value in series [1] (setting [4]) is on record as “QCA* 75”. In addition, the MIC in the series on fungal strains is given as 125-180 ppm. In addition, the “cinnamic acid in the form of the un-dissociated acid” value in series [2] (beverage pH 4.5) is on record as “at least 45%”; in series [2] (pH 5.5), no more than 7.6%. In addition, the “concentration of cinnamic acid to which fungal strains are tolerant” value in series [3] (incubation of 16 weeks, pH 3.4) was 300 ppm and 450 ppm. Also, in series [3] (stand alone preservative, 16 weeks), the “stand alone concentration needed for preservation against spoilage for at least 16 weeks” value is recorded as 450-500 ppm.

Consider `CCCCCCCCCCCC(=O)N[C@@H](CCCNC(=N)N)C(=O)OCC.Cl` [LAE, ethyl-N-lauroyl-L-argniate hydrochloride], for which the “recommended stand alone concentration to stabilize beverages against spoilage” value in the series with yeast and mold was 128 ppm. For the same compound, the “amount of growth (normalized) to control” value in series [1] (pH 3.0, LAE 2.5 ppm, Cinnamic Acid 0 ppm) was 97%; in series [1] (pH 3.0, LAE 5 ppm, Cinnamic Acid 0 ppm) it was 101%; in series [1] (pH 3.0, LAE 7.5 ppm, Cinnamic Acid 0 ppm), 96%; in series [1] (pH 3.0, LAE 10 ppm, Cinnamic Acid 0 ppm), 102%; in series [1] (pH 3.0, LAE 15 ppm, Cinnamic Acid 0 ppm), 94%; in series [1] (pH 3.5, LAE 2.5 ppm, Cinnamic Acid 0 ppm), 96%. Besides, the “amount of growth (normalized) to control” value is on record as 106% in series [1] (pH 3.5, LAE 5 ppm, Cinnamic Acid 0 ppm); 110% in series [1] (pH 3.5, LAE 7.5 ppm, Cinnamic Acid 0 ppm); 114% in series [1] (pH 3.5, LAE 10 ppm, Cinnamic Acid 0 ppm); 118% in series [1] (pH 3.5, LAE 15 ppm, Cinnamic Acid 0 ppm); 115% in series [1] (pH 4.0, LAE 2.5 ppm, Cinnamic Acid 0 ppm); 125% in series [1] (pH 4.0, LAE 5 ppm, Cinnamic Acid 0 ppm). The “amount of growth (normalized) to control” value in series [1] (pH 4.0, LAE 7.5 ppm, Cinnamic Acid 0 ppm) is reported as 124%; in series [1] (pH 4.0, LAE 10 ppm, Cinnamic Acid 0 ppm), 124%; in series [1] (pH 4.0, LAE 15 ppm, Cinnamic Acid 0 ppm) it was 131%. Also, the “QLAE* (quantity of LAE alone required for the end point)” value in series [1] (setting [4]) is given as “QLAE* 30”.
